Measurements as given in PMC5469503 (PLoS Pathogens, 2017).

Columns and labels:
[1] = target: T1, V1 subcomplex of the V-ATPase (Saccharomyces cerevisiae, UniProt P16140+P17255); test: fluorescence titration (TNP-ATP emission); settings: pH 7.9, 10.0 °C, 25 mM Tris-HCl, 0.15 M NaCl, 1 mM MgCl2, 0.5 mM DTT, 0.25 μM V1; nucleotide site
T1 construct: gene VMA1

[2] = target: V-ATPase from S. cerevisiae, intact, detergent solubilized (A3B3CDE3FG3Hac8c'c''def), 3xFLAG on the A-subunit (S. cerevisiae) (UniProt P16140); test: cryo-EM structure

| Substance | Kd [1] [nM] | stoichiometry N [2] |
| --- | --- | --- |
| 2',3'-O-(2,4,6-trinitrophenyl) adenosine 5'-triphosphate [TNP-ATP] | 160 ± 50 | – |
| SidK, full length (residues 1 to 573) (natural protein) | – | 3 |
